Patent publication US7811997B2, “Composition containing total triterpenoid sapogenins extracted from bamboo, and the preparation method and use thereof” (priority 2002, dated 2010)
Read-outs that look alike come from different tables or passages of the source.

Key:
Assay type in all cases: cell-based
[1] = test system: Hela (human cervical tumor); test: MTT proliferation inhibition, Hela cells; settings: Hela cell; for Inhibitory rate (%) / inhibition at 120 µM: 120 μmol/L; for inhibition at 7.5 µM / inhibition at 15 µM / inhibition at 30 µM / inhibition at 60 µM / inhibition at 120 µM / inhibition at 240 µM / inhibition at 480 µM / inhibition at 960 µM / IC50: Homo sapiens; for inhibition at 7.5 µM / inhibition at 15 µM / inhibition at 30 µM / inhibition at 60 µM / inhibition at 120 µM / inhibition at 240 µM / inhibition at 480 µM / inhibition at 960 µM: HeLa, read-out: Inhibitory rate (%); for inhibition at 7.5 µM: 7.5 μmol/L; for inhibition at 15 µM: 15 μmol/L; for inhibition at 30 µM: 30 μmol/L; for inhibition at 60 µM: 60 μmol/L; for inhibition at 240 µM: 240 μmol/L; for inhibition at 480 µM: 480 μmol/L; for inhibition at 960 µM: 960 μmol/L; for IC50: MTT, Bliss method
Excerpt: (§1) The Silica Gel Column Chromatography and Countercurrent Chromatography preparation techniques were used to obtain Friedelin monomer extracted from EZR2002 for the sake of evaluating its anti-tumor activity further. The purity of this monomer determined by GC-MS analysis was 90.5%.
(§2) A375 (human malanoma), L929 (mouse lung epithelial tumor), Hela (human cervical tumor) and THP-1 (human macrophage tumor) cell lines were used for active filtration test in this experiment. Among these cell lines, A375, L929 and Hela were adherent cells while THP-1 was a kind of suspended cell.
(§3) All cells were maintained in the RPMI-1640 culture medium supplemented with 10% fetal calf serum, penicillin (100 U/mL), streptomycin (100 μg/mL) and 0.2% NaHCO3. These supplements were dissolved in deionized water and 0.22 μm filtration membrane was used for filter sterilization. The fetal calf serum was inactivated 30 min at 56° C. prior to an experiment. Cells were cultured in a humidified incubator of 5% CO2 at 37° C.
(§4) A375, L929 and Hela cells in logarithmic growth phases were seeded at a cell density of approximately 5×10^4 cells/mL in 96 pore plates (100 μL/well). Furthermore, THP-1 cell was seeded at a cell density of approximately 1×10^5 cells/mL because it was smaller than others. Samples were added in suspended cells after culturing 4 h and in adherent cells after culturing 12 h. Friedelin was dissolved in DMSO in advance and then in the culture medium with the ultrasonic treatment, where the final concentration of the solvent in the culture medium was <0.1% (v/v). Sample was added for 7.5, 15, 30, 60, 120, 240, 480 and 960 μmol/L. Each level had four parallel pores and a negative control. The cells were incubated for 24 and 48 h and then 15 μL/well MTT solvent (5 mg/mL) was added.
(§5) The cells were incubated for 48 h, followed by centrifugation at 1500 rpm for 5 min. The supernatant was removed and 150 μL/well DMSO was added, followed by micro-vibrator shocking for 10 min and crystal dissolving completely. The absorbance (OD value) was measured by enzyme-labeled meter at 492 nm. Furthermore, the inhibitory rate of cell proliferation and the IC50 value of friedelin were counted by using Bliss method.
(§6) The de-methyl-cantharidin was taken as the positive control and the inhibitory rate of A375, L929 and Hela cells were measured by adding de-methyl-cantharidin (120 μmol/L) for 24 and 48 h (Table 8). Furthermore, the corresponding data of Friedelin were counted.

A375 (human malanoma) = test: MTT proliferation inhibition, A375 cells; settings: A375 cell; for inhibition at 7.5 µM / inhibition at 15 µM / inhibition at 30 µM / inhibition at 60 µM / inhibition at 120 µM / inhibition at 240 µM / inhibition at 480 µM / inhibition at 960 µM / IC50: Homo sapiens; for inhibition at 7.5 µM: 7.5 μmol/L; for inhibition at 7.5 µM / inhibition at 15 µM / inhibition at 30 µM / inhibition at 60 µM / inhibition at 120 µM / inhibition at 240 µM / inhibition at 480 µM / inhibition at 960 µM: read-out: Inhibitory rate (%); for inhibition at 15 µM: 15 μmol/L; for inhibition at 30 µM: 30 μmol/L; for inhibition at 60 µM: 60 μmol/L; for inhibition at 240 µM: 240 μmol/L; for inhibition at 480 µM: 480 μmol/L; for inhibition at 960 µM: 960 μmol/L; for IC50: A-375, MTT, Bliss method
Excerpt: as §1, §2, §3, §4, §5, §6

[2] = test system: L929 (mouse lung epithelial tumor); test: MTT proliferation inhibition, L929 cells; settings: L929 cell; for Inhibitory rate (%) / inhibition at 120 µM: 120 μmol/L; for inhibition at 7.5 µM / inhibition at 15 µM / inhibition at 30 µM / inhibition at 60 µM / inhibition at 120 µM / inhibition at 240 µM / inhibition at 480 µM / inhibition at 960 µM / IC50: Mus musculus; for inhibition at 7.5 µM: 7.5 μmol/L; for inhibition at 7.5 µM / inhibition at 15 µM / inhibition at 30 µM / inhibition at 60 µM / inhibition at 120 µM / inhibition at 240 µM / inhibition at 480 µM / inhibition at 960 µM: read-out: Inhibitory rate (%); for inhibition at 15 µM: 15 μmol/L; for inhibition at 30 µM: 30 μmol/L; for inhibition at 60 µM: 60 μmol/L; for inhibition at 240 µM: 240 μmol/L; for inhibition at 480 µM: 480 μmol/L; for inhibition at 960 µM: 960 μmol/L; for IC50: MTT, Bliss method
Excerpt: as §1, §2, §3, §4, §5, §6

[3] = test system: THP-1 (human macrophage tumor); test: MTT proliferation inhibition, THP-1 cells; settings: THP-1 cell; for inhibition at 7.5 µM: 7.5 μmol/L; for inhibition at 7.5 µM / inhibition at 15 µM / inhibition at 30 µM / inhibition at 60 µM / inhibition at 120 µM / inhibition at 240 µM / inhibition at 480 µM / inhibition at 960 µM: read-out: Inhibitory rate (%); for inhibition at 15 µM: 15 μmol/L; for inhibition at 30 µM: 30 μmol/L; for inhibition at 60 µM: 60 μmol/L; for inhibition at 120 µM: 120 μmol/L; for inhibition at 240 µM: 240 μmol/L; for inhibition at 480 µM: 480 μmol/L; for inhibition at 960 µM: 960 μmol/L; for IC50: MTT, Bliss method
Excerpt: as §1, §2, §3, §4, §5

SMILES: C[C@H]1C(=O)CC[C@@H]2[C@]1(C)CC[C@H]1[C@@]2(C)CC[C@@]2(C)[C@@H]3CC(C)(C)CC[C@]3(C)CC[C@]12C [Friedelin, friedelin]
- Inhibitory rate (%) ([1]; 24 h): 71.6%
- Inhibitory rate (%) ([1]; 48 h): 86.0%
- inhibition at 7.5 µM ([1]; 24 h, 24 h): 35%
- inhibition at 15 µM ([1]; 24 h, 24 h): 34.7%
- inhibition at 30 µM ([1]; 24 h, 24 h): 33.3%
- inhibition at 60 µM ([1]; 24 h, 24 h): 43.4%
- inhibition at 120 µM ([1]; 24 h, 24 h): 71.6%
- inhibition at 240 µM ([1]; 24 h, 24 h): 88.2%
- inhibition at 480 µM ([1]; 24 h, 24 h): 88.1%
- inhibition at 960 µM ([1]; 24 h, 24 h): 73.8%
- inhibition at 7.5 µM ([1]; 48 h, 48 h): 20%
- inhibition at 15 µM ([1]; 48 h, 48 h): 17.2%
- inhibition at 30 µM ([1]; 48 h, 48 h): 24.6%
- inhibition at 60 µM ([1]; 48 h, 48 h): 41.4%
- inhibition at 120 µM ([1]; 48 h, 48 h): 86%
- inhibition at 240 µM ([1]; 48 h, 48 h): 99.5%
- inhibition at 480 µM ([1]; 48 h, 48 h): 98%
- inhibition at 960 µM ([1]; 48 h, 48 h): 92%
- IC50 ([1]; 24 h): 61.2 µM
- IC50 ([1]; 48 h): 64.7 µM
- Inhibitory rate (%) (A375 (human malanoma); 48 h, 120 μmol/L): 88.6%
- inhibition at 7.5 µM (A375 (human malanoma); A-375, 24 h, 24 h): 0%
- inhibition at 15 µM (A375 (human malanoma); A-375, 24 h, 24 h): 6.43%
- inhibition at 30 µM (A375 (human malanoma); A-375, 24 h, 24 h): 0.43%
- inhibition at 60 µM (A375 (human malanoma); A-375, 24 h, 24 h): 14.1%
- inhibition at 120 µM (A375 (human malanoma); A-375, 24 h, 24 h, 120 μmol/L): 36.7%
- inhibition at 240 µM (A375 (human malanoma); A-375, 24 h, 24 h): 44.8%
- inhibition at 480 µM (A375 (human malanoma); A-375, 24 h, 24 h): 63.3%
- inhibition at 960 µM (A375 (human malanoma); A-375, 24 h, 24 h): 60.4%
- inhibition at 7.5 µM (A375 (human malanoma); A-375, 48 h, 48 h): 0.51%
- inhibition at 15 µM (A375 (human malanoma); A-375, 48 h, 48 h): 6.29%
- inhibition at 30 µM (A375 (human malanoma); A-375, 48 h, 48 h): 17.2%
- inhibition at 60 µM (A375 (human malanoma); A-375, 48 h, 48 h): 44.4%
- inhibition at 120 µM (A375 (human malanoma); A-375, 48 h, 48 h, 120 μmol/L): 88.6%
- inhibition at 240 µM (A375 (human malanoma); A-375, 48 h, 48 h): 100%
- inhibition at 480 µM (A375 (human malanoma); A-375, 48 h, 48 h): 96.1%
- inhibition at 960 µM (A375 (human malanoma); A-375, 48 h, 48 h): 89.8%
- IC50 (A375 (human malanoma); 24 h): 357 µM
- IC50 (A375 (human malanoma); 48 h): 61.5 µM
- Inhibitory rate (%) ([2]; 24 h): 37.6%
- Inhibitory rate (%) ([2]; 48 h): 81.1%
- inhibition at 7.5 µM ([2]; L929, 24 h, 24 h): 5.42%
- inhibition at 15 µM ([2]; L929, 24 h, 24 h): 10.4%
- inhibition at 30 µM ([2]; L929, 24 h, 24 h): 13.2%
- inhibition at 60 µM ([2]; L929, 24 h, 24 h): 22.7%
- inhibition at 120 µM ([2]; L929, 24 h, 24 h): 37.6%
- inhibition at 240 µM ([2]; L929, 24 h, 24 h): 52.3%
- inhibition at 480 µM ([2]; L929, 24 h, 24 h): 48.1%
- inhibition at 960 µM ([2]; L929, 24 h, 24 h): 38.9%
- inhibition at 7.5 µM ([2]; L929, 48 h, 48 h): 17.3%
- inhibition at 15 µM ([2]; L929, 48 h, 48 h): 21.6%
- inhibition at 30 µM ([2]; L929, 48 h, 48 h): 38.8%
- inhibition at 60 µM ([2]; L929, 48 h, 48 h): 66.8%
- inhibition at 120 µM ([2]; L929, 48 h, 48 h): 81.1%
- inhibition at 240 µM ([2]; L929, 48 h, 48 h): 99.5%
- inhibition at 480 µM ([2]; L929, 48 h, 48 h): 98.2%
- inhibition at 960 µM ([2]; L929, 48 h, 48 h): 89.9%
- IC50 ([2]; 24 h): 665 µM
- IC50 ([2]; 48 h): 36.9 µM
- inhibition at 7.5 µM ([3]; 24 h): 4.89%
- inhibition at 15 µM ([3]; 24 h): 0%
- inhibition at 30 µM ([3]; 24 h): 3.04%
- inhibition at 60 µM ([3]; 24 h): 45.2%
- inhibition at 120 µM ([3]; 24 h): 58.8%
- inhibition at 240 µM ([3]; 24 h): 68.5%
- inhibition at 480 µM ([3]; 24 h): 74.1%
- inhibition at 960 µM ([3]; 24 h): 70.8%
- IC50 ([3]; 24 h): 85.1 µM
- inhibition at 7.5 µM ([3]; 48 h): 8.6%
- inhibition at 15 µM ([3]; 48 h): 0%
- inhibition at 30 µM ([3]; 48 h): 7.57%
- inhibition at 60 µM ([3]; 48 h): 52.6%
- inhibition at 120 µM ([3]; 48 h): 77.3%
- inhibition at 240 µM ([3]; 48 h): 95%
- inhibition at 480 µM ([3]; 48 h): 92.9%
- inhibition at 960 µM ([3]; 48 h): 82.5%
- IC50 ([3]; 48 h): 58 µM
